Experimental findings from US20030199671A1, “Binding molecules for Fc-region polypeptides” (priority 2001, published 2003) are described below.

Like-named read-outs stand apart in the source and are kept apart here. Positions of bridges follow the written chain, without caps; N, C: chain ends. Residues, ends and D or L forms follow the SMILES beside them.

The experiment concerns the target T1, human plasma IgG1 (Homo sapiens, UniProt P01857).
T1 construct: the individual human plasma IgG isoforms: IgG1, IgG2, IgG3, or IgG4; purchased Calbiochem; host or cells: human plasma
As to the kind of experiment: Fluorescence anisotropy binding, Oregon Green labeled peptide. In short, it runs like this:
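Oregon Green-labeled peptides binding to human plasma IgG isoforms measured by fluorescence anisotropy. Buffers with 0.01% Tween 20: 10 mM sodium citrate pH 4.0 with 500 mM NaCl; Tris-HCl pH 7.5 with 500 mM NaCl; 10 mM sodium bicarbonate pH 9.5 with or without 500 mM NaCl.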

The mark [1] stands for this setting: 10 nM Tris-HCl, 500 mM Sodium Chloride, pH 7.5, read-out: KD (μM) IgG1 pH 7.5 + salt.
[2] abbreviates: 10 mM Sodium Bicarbonate, 500 mM Sodium Chloride, pH 9.5, read-out: KD (μM) IgG1 pH 9.5 + salt.
The mark [3] stands for this setting: 10 mM Sodium Bicarbonate, pH 9.5, read-out: KD (μM) IgG1 pH 9.5 − salt.
The mark [4] stands for this setting: 10 mM Sodium Citrate, 500 mM Sodium Chloride, pH 4.0, read-out: KD (μM) IgG1 pH 4.0 + salt.
Setting [5] is: 10 mM Sodium Citrate, pH 4.0, read-out: KD (μM) IgG1 pH 4.0 − salt.
The mark [6] stands for this setting: 10 mM Tris-HCl, pH 7.5, read-out: KD (μM) IgG1 pH 7.5 − salt.
Where [7] appears, read: TBS, 0.01% Tween 20, pH 7.5, read-out: KD (μM) IgG1 TBS.

T1 sequence (P01857 1-330 isoform P01857-1): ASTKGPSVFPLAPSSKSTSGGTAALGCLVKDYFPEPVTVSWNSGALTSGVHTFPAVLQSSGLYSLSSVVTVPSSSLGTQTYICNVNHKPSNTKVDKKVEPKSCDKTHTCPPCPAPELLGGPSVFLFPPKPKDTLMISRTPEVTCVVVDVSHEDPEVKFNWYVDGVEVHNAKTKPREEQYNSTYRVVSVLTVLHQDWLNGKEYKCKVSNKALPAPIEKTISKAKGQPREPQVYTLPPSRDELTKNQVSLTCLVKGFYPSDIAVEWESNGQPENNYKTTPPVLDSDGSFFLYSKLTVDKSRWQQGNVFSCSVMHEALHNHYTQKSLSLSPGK

On to `CC(=O)N[C@@H](C)C(=O)NCC(=O)N1CCC[C@H]1C(=O)N[C@@H](Cc1c[nH]cn1)C(=O)N[C@@H](CC(N)=O)C(=O)N[C@H]1CSSC[C@@H](C(=O)N[C@@H](CCCCN)C(=O)N[C@@H](Cc2c[nH]c3ccccc23)C(=O)N[C@@H](Cc2ccccc2)C(=O)N2CCC[C@H]2C(=O)NCC(=O)N2CCC[C@H]2C(=O)N[C@@H](CCC(=O)O)C(=O)NCC(=O)NCC(=O)NCC(=O)N[C@@H](CCCCN)C(N)=O)NC(=O)[C@H](Cc2ccc(O)cc2)NC(=O)[C@H](Cc2c[nH]c3ccccc23)NC(=O)[C@H](Cc2ccc(O)cc2)NC(=O)[C@H](Cc2c[nH]cn2)NC(=O)[C@H](CC(=O)O)NC(=O)[C@H](CC(=O)O)NC1=O` [DX389] (Ac-AGPHNCDDHYWYCKWFPGPEGGGK-NH2; disulfide 6-13 (inferred)), for which the Kd is more than 10 µM under setting [1]; more than 10 µM under setting [2]; more than 10 µM under setting [3]; more than 10 µM under setting [4]; more than 10 µM under setting [5]; more than 10 µM under setting [6]. Under setting [7], the Kd is more than 10 µM.

On to `CC[C@H](C)[C@@H]1NC(=O)[C@H](CCCCN)NC(=O)[C@@H](NC(=O)[C@H](Cc2c[nH]c3ccccc23)NC(=O)[C@H](Cc2ccc(O)cc2)NC(=O)[C@H](CO)NC(=O)CNC(=O)[C@H](C)NC(C)=O)CSSC[C@@H](C(=O)N2CCC[C@H]2C(=O)N[C@@H](CCC(N)=O)C(=O)N[C@@H](CO)C(=O)N2CCC[C@H]2C(=O)NCC(=O)N2CCC[C@H]2C(=O)N[C@@H](CCC(=O)O)C(=O)NCC(=O)NCC(=O)NCC(=O)N[C@@H](CCCCN)C(N)=O)NC(=O)[C@H](C(C)C)NC(=O)[C@H](CC(=O)O)NC(=O)[C@H](Cc2c[nH]c3ccccc23)NC1=O` [DX392] (Ac-AGSYWCKIWDVCPQSPGPEGGGK-NH2; disulfide 6-12 (inferred)), for which the Kd under setting [1] is more than 10 µM; the dissociation constant Kd under setting [2] was more than 10 µM; the equilibrium dissociation constant (Kd) under setting [3] was more than 10 µM; the Kd under setting [4] was more than 10 µM; the dissociation constant Kd under setting [5] was more than 10 µM; the equilibrium dissociation constant (Kd) under setting [6] is more than 10 µM. Under setting [7], the equilibrium dissociation constant (Kd) is more than 10 µM.

Turning to `CC(=O)N[C@@H](C)C(=O)NCC(=O)N[C@@H](CCCCN)C(=O)N[C@@H](Cc1ccc(O)cc1)C(=O)N[C@@H](Cc1c[nH]c2ccccc12)C(=O)N[C@H]1CSSC[C@@H](C(=O)N2CCC[C@H]2C(=O)N[C@@H](C)C(=O)N[C@@H](CC(N)=O)C(=O)N2CCC[C@H]2C(=O)NCC(=O)N2CCC[C@H]2C(=O)N[C@@H](CCC(=O)O)C(=O)NCC(=O)NCC(=O)NCC(=O)N[C@@H](CCCCN)C(N)=O)NC(=O)[C@H](C(C)C)NC(=O)CNC(=O)[C@H](Cc2c[nH]c3ccccc23)NC(=O)[C@H](CC(C)C)NC(=O)[C@H](CC(N)=O)NC1=O` [DX395], the equilibrium dissociation constant (Kd) is more than 10 µM under setting [1]; more than 10 µM under setting [2]; more than 10 µM under setting [3]; more than 10 µM under setting [4]; more than 10 µM under setting [5]; more than 10 µM under setting [6]. Further, the dissociation constant Kd under setting [7] was more than 10 µM.

In the case of `CC(=O)N[C@@H](C)C(=O)NCC(=O)N[C@@H](C)C(=O)N[C@@H](C)C(=O)N[C@H](C(=O)N[C@H]1CSSC[C@@H](C(=O)N[C@H](C(=O)N[C@@H](CC(=O)O)C(=O)N[C@@H](CO)C(=O)N2CCC[C@H]2C(=O)NCC(=O)N2CCC[C@H]2C(=O)N[C@@H](CCC(=O)O)C(=O)NCC(=O)NCC(=O)NCC(=O)N[C@@H](CCCCN)C(N)=O)[C@@H](C)O)NC(=O)[C@H](Cc2ccccc2)NC(=O)[C@H](Cc2c[nH]c3ccccc23)NC(=O)[C@H](CCC(N)=O)NC(=O)[C@H](Cc2ccc(O)cc2)NC(=O)[C@H](Cc2ccc(O)cc2)NC(=O)[C@H](Cc2c[nH]c3ccccc23)NC(=O)[C@H](Cc2ccc(O)cc2)NC(=O)[C@H](CO)NC(=O)[C@H]([C@@H](C)O)NC(=O)[C@H](CO)NC1=O)[C@@H](C)O` [DX398], the Kd under setting [1] is more than 10 µM; the Kd under setting [2] is more than 10 µM; the Kd under setting [3] was more than 10 µM; the dissociation constant (Kd) under setting [4] is more than 10 µM; the Kd under setting [5] was approximately 2 µM; the dissociation constant Kd under setting [7] was more than 10 µM.
